Experimental data: BigSolDB 2.1

NCCCCCCN
solubility (mole fraction)
Conditions	in 1,4-dioxane	in cyclohexane	in isobutanol	in n-butanol	in n-hexane	in n-propanol	in toluene
278.15 K	–	0.0071	0.193	0.35	0.0103	0.315	0.132
283.15 K	0.135	0.0092	0.236	0.389	0.0149	0.354	0.161
288.15 K	0.194	0.0126	0.288	0.448	0.018	0.391	0.209
293.15 K	0.267	0.0187	0.351	0.508	0.0268	0.431	0.259
298.15 K	0.348	0.0309	0.427	0.584	0.0449	0.485	0.334
303.15 K	0.467	0.053	0.521	0.652	0.0729	0.552	0.434
